Results reported in patent publication US20040191297A1, “Carotenoid formulation” (priority 1997, published 2004).

Experiments:
[1] = Dietary lycopene stability, AIN-76A diet at 4 °C in the dark; assay type: physicochemical; settings: for % (diet concentration 744 μg/g as 100%) / Lycopene concentration: 4 °C dark; for Lycopene concentration: AIN-76A diet
Description: The stability of the lycopene suspension once incorporated into the diet was assessed in two ways. The first was by placing the diet containing the suspension at 4° C. in the dark for a period of 3 weeks (Table 8A,B).
At various time points, a diet sample was taken and lycopene was extracted as follows: Approximately 0.5 to 1.0 g of sample was added to a 15 ml volume of extraction solvent consisting of 40% acetonitrile, 20% hexane, 20% methanol and 20% methylenechloride. The mixture was sonicated for 2 minutes and allowed to stand for 5 minutes. The reddish-orange clear supernatant was then decanted. This process was repeated 4 times, at which time the supernatant was colorless. Solvent was then added to a volume of 25 to 100 ml, the mixture centrifuged, and the supernatant decanted. All supernatants were then mixed. The above solvent serves two purposes; first, it is the most efficient mixture for lycopene, and second, it is the same solvent used for injecting lycopene samples into the HPLC.

[2] = Fecal lycopene analysis (24 hour fecal pellets); assay type: in vivo, rat; settings: for Fecal lycopene: male rat, 744 μg/g in diet
Description: Prior to termination, 3 animals from each group were placed in metabolic cages and 24-hour urine and fecal collections made for subsequent lycopene assay. Blood was collected by heart puncture under anesthesia for lycopene assay and all animals were sacrificed by CO2 anesthesia. Blood and feces were stored at −20° C. At necropsy, all major organ systems were grossly inspected. Any unusual appearing tissues were placed in formalin and saved for later histological examination.
Extraction of lycopene from diet was as follows: A sample of diet containing lycopene was suspended in the injection solvent (Table 4) and homogenized in a polytron homogenizer. Echinenone was added as an internal standard and the mixture centrifuged at 3000 rpm at 4° C. for 15 minutes. The supernatant was decanted and saved and the extraction repeated. The pooled extracts were then dried under N2 gas at 60° C. and the residue dissolved in 0.5 ml injection solvent and then subjected to HPLC analysis. The same method, with minor variations, was used for feces and for lung tissue. The efficiency of lycopene extraction from the diet is shown in Table 6 A&B. At any concentration tested the efficiency ranged from 75% at the highest concentration to 100% for the lowest concentration of lycopene.
The possibility that some lycopene decomposed upon storage prior to extraction must also be considered. […] This, no doubt, is due to the presence of water in the fecal pellet and to the geometry of the pellet. Once freeze-dried, the fecal pellet can easily be powdered, permitting easier access of the solvent to the fecal matrix.

[3] = Lycopene content of rat mammary gland; assay type: in vivo, Fischer 344 rats; settings: female
From the text: homogenized. […] This hexane extraction procedure was repeated 5-7 times.

retinol = assay: Liver vitamin A assay; assay type: in vivo, Fischer 344 rats; settings: male
[4] = lyophilization + organic extraction

## CC(C)=CCC/C(C)=C/C=C/C(C)=C/C=C/C(C)=C/C=C/C=C(C)/C=C/C=C(C)/C=C/C=C(\C)CCC=C(C)C [Lycopene]
[1]; 1 day
  % (diet concentration 744 μg/g as 100%): 101%
[1]; 8 days
  % (diet concentration 744 μg/g as 100%): 98%
[1]; 14 days
  % (diet concentration 744 μg/g as 100%): 90%
[1]; 21 days
  % (diet concentration 744 μg/g as 100%): 72%
[1]; 4 °C in the dark, 3 weeks
  amount remaining relative to day 1: about 72%
[1]; 4 °C in the dark, two weeks
  decomposition: about 10%
[1]; 21 days in the dark at 4 °C
  stability in the diet: stable
[1]; 1 day in refrigerator
  Lycopene concentration: 748 µg/g
[1]; 8 days in refrigerator
  Lycopene concentration: 728 µg/g
[1]; 14 days in refrigerator
  Lycopene concentration: 672 µg/g
[1]; 21 days in refrigerator
  Lycopene concentration: 534 µg/g
[2]; [4]
  24 hr fecal lycopene: 5,406 μg
  Fecal lycopene: 3,754 μg/g
[2]; organic extraction
  Fecal lycopene: 2,992 μg/g
  24 hr fecal lycopene: 4,309 μg
  % Efficiency (fecal output/input): 44%
[3]; Group 1 (1280 mg/kg diet)
  Lycopene content of mammary gland, Median: 235 ng/g
  Lycopene content of mammary gland, Range: 232 to 460 ng/g
  Lycopene content of mammary gland, mean ± SD: 309 ± 131 ng/g
[3]; Group 2 (512 mg/kg diet)
  Lycopene content of mammary gland, Median: 197 ng/g
  Lycopene content of mammary gland, Range: 172 to 231 ng/g
  Lycopene content of mammary gland, mean ± SD: 200 ± 030 ng/g
[3]; Group 3 (256 mg/kg diet)
  Lycopene content of mammary gland, Median: 220 ng/g
  Lycopene content of mammary gland, Range: 139 to 282 ng/g
  Lycopene content of mammary gland, mean ± SD: 215 ± 062 ng/g
[3]; Group 4 (128 mg/kg diet)
  Lycopene content of mammary gland, Median: 217 ng/g
  Lycopene content of mammary gland, Range: 181 to 288 ng/g
  Lycopene content of mammary gland, mean ± SD: 229 ± 054 ng/g
[3]; Group 5 (51 mg/kg diet)
  Lycopene content of mammary gland, Median: 143 ng/g
  Lycopene content of mammary gland, Range: 139 to 239 ng/g
  Lycopene content of mammary gland, mean ± SD: 174 ± 057 ng/g
retinol; Group 7, lycopene 1280 mg/kg diet
  Liver retinol: 388 μg/gm
retinol; Group 8, lycopene 512 mg/kg diet
  Liver retinol: 119 μg/gm
retinol; Group 9, lycopene 256 mg/kg diet
  Liver retinol: 584 μg/gm
retinol; Group 11, lycopene 51 mg/kg diet
  Liver retinol: 454 μg/gm
